This is an account of results in US6362341B1, “Benzyl compounds which inhibit leukocyte adhesion mediated by VLA-4” (Athena Neurosciences, Inc., priority 1997, dated 2002).

By melting point is commonly meant the temperature, or range, at which the solid turns liquid.

Non-standard residues stand in square brackets, D forms with d. Residues, ends and D or L forms follow the SMILES beside them. *: point of attachment. Tos = Cc1ccc(S(=O)(=O)*)cc1; Thz = O=C(O)[C@@H]1CSCN1

One series relates to Experimental Autoimmune Encephalomyelitis (EAE) model, motor impairment. The series is described as follows: In vivo evaluation - Experimental Autoimmune Encephalomyelitis (EAE). Details: species or system Lewis rats or Hartley guinea pigs. To be noted: active = delayed onset of symptoms, e.g. clinical scores no greater than 2 or slowed body weight loss as compared to the control; treatment from Day 8, bid, five days.
Take `Cc1ccc(S(=O)(=O)N2CCC[C@H]2C(=O)N[C@@H](Cc2ccccc2)C(=O)O)cc1` [Example 3, N-(Toluene-4-sulfonyl)-L-prolyl-L-phenylalanine] (Tos-Pro-Phe-OH): the “activity in EAE model (delay of onset of symptoms)” value is “active”.

Test system in a further series: not given
Test: not given
Conditions: not given
In the case of `Cc1ccc(S(=O)(=O)N2CCC[C@H]2C(=O)NC(Cc2ccccc2)C(=O)NCCC(=O)O)cc1` (mixture of isomers) [Example 45, N-(Toluene-4-sulfonyl)-L-prolyl-D,L-phenylalanyl-β-alanine], the melting point fell in the range of 91 to 95 °C. Same read-out and setting: in the case of `Cc1ccc(S(=O)(=O)N2CCC[C@H]2C(=O)NC(Cc2nc[nH]n2)C(=O)O)cc1` (mixture of isomers) [Example 66, N-(Toluene-4-sulfonyl)-L-prolyl-D,L-β-(1,2,4-triazol-3-yl)alanine] it was 153 to 163 °C; in that of `O=C(O)[C@H](Cc1ccccc1)NC(=O)[C@@H]1CCCN1S(=O)(=O)c1ccc(Cl)cc1` [Example 10, N-(4-Chlorobenzenesulfonyl)-L-prolyl-L-phenylalanine], 69 to 71 °C; in that of `COC(=O)c1ccccc1S(=O)(=O)N1CCC[C@H]1C(=O)N[C@@H](Cc1ccccc1)C(=O)O` [Example 18, N-(2-Methoxycarbonylbenzenesulfonyl)-L-prolyl-L-phenylalanine], 163 to 165 °C. On the same count and under the same terms, in the case of `Cc1ccc(S(=O)(=O)N2CSC[C@H]2C(=O)N[C@@H](Cc2ccccc2)C(=O)O)cc1` [Example 20, N-(Toluene-4-sulfonyl)-L-thiaprolyl-L-phenylalanine] (Tos-[Thz]-Phe-OH) it was 60 to 65 °C; in that of `O=C(O)[C@H](Cc1ccccc1)NC(=O)[C@@H]1CCCN1S(=O)(=O)c1ccc([N+](=O)[O-])cc1` [Example 27, N-(4-Nitrobenzenesulfonyl)-L-prolyl-L-phenylalanine], 70 to 80 °C.

In the case of `Cc1ccc(S(=O)(=O)N2CCC[C@H]2C(=O)N[C@@H](Cc2ccccc2)C(=O)NOCc2ccccc2)cc1` [Example 43, N-(Toluene-4-sulfonyl)-L-prolyl-L-phenylalanine N-Benzyloxyamide], the melting point lay in the range of 127 to 130 °C.
